Laboratory results: US7709475B2, “Selective inhibitors against Cdk4 and Cdk6 having aminothiazole skeleton” (Banyu Pharmaceutical Co., Ltd., priority 2004, dated 2010)

Key:
cyclin H-Cdk7 = target: T1, cyclin H-Cdk7 (Homo sapiens, UniProt P50613); experiment: Cdk7 inhibitory action: cyclin H-Cdk7 kinase activity; format: biochemical; details: cyclin H-Cdk7, 50 μM ATP
T1 construct: made in house; host or cells: insect cell Sf9 (baculovirus)
From the text: The cDNA of Cdk7, and the cDNA of a fusion protein of cyclin H, an activating factor of Cdk7, and glutathione S-transferase, were integrated into a baculovirus expression vector to prepare a recombinant baculovirus. This was co-transfected into insect cell Sf9 to express an active complex of the cyclin H/glutathione S-transferase fusion protein-Cdk7 at a high level. The cells were recovered and solubilized, then the active complex was adsorbed onto Glutathione Sepharose, and a cyclin H-Cdk7 active complex was recovered using Precision Protease.
For the measurement of the activity of cyclin H-Cdk7, a synthetic peptide ([…] was used as the substrate.
(§1) The reaction was performed by partially modifying the method of Kitagawa et al. [Oncogene, Vol. 7, 1067-1074 (1992)]. The volume of the reaction solution was 21.1 μL, and to the R buffer, purified cyclin H-Cdk7, 25 μM of the substrate peptide, 50 μM of non-labeled adenosine triphosphate (ATP), and 1 μCi of [γ-33P]-labeled ATP (2000 to 4000 Ci/mmole) were added to react at 30° C. for 45 minutes. Then, 10 μL of 350 mM phosphate buffer was added to the reaction system to terminate the reaction. The substrate peptide was adsorbed onto P81 paper filter on a 96-well plate, and then washed several times with 75 mM phosphate buffer. The radioactivity of the substrate peptide was measured with a liquid scintillation counter.
Addition of the compound according to the invention to the reaction system was carried out by first preparing a dilution series of solutions of the compound in dimethylsulfoxide (DMSO), and adding 1.1 μL of the dilutions. A control was provided by adding 1.1 μL of DMSO to the reaction system.
A representative compound of the compounds according to the invention was selected, and the IC50 value of this compound for the cyclin H-Cdk7 activity was determined.

cyclin T1-Cdk9 = target: T2, cyclin T1-Cdk9 (Homo sapiens, UniProt P50750); experiment: Cdk9 inhibitory action: cyclin T1-Cdk9 kinase activity; format: biochemical; details: cyclin T1-Cdk9, 50 μM ATP
T2 construct: made in house; host or cells: insect cell Sf9 (baculovirus)
From the text: The cDNA of Cdk9, and the cDNA of a fusion protein of cyclin T1, an activating factor of Cdk9, and glutathione S-transferase, were integrated into a baculovirus expression vector to prepare a recombinant baculovirus. This was co-transfected into insect cell Sf9 to express an active complex of the cyclin T1/glutathione S-transferase fusion protein-Cdk9 at a high level. The cells were recovered and solubilized, and the active complex was adsorbed onto Glutathione Sepharose, and then was purified by elution with 10 mM reductive glutathione. The solution containing the eluted active complex was dialyzed against B buffer (composition: 20 mM Tris-hydrochloric acid buffer (pH 7.4)/200 mM sodium chloride/0.1% Tween-20/10 mM 2-mercaptoethanol/1 mM dithiothreitol/10% glycerol) to remove the reductive glutathione.
For the measurement of the activity of cyclin T1-Cdk9, a synthetic peptide ([…] was used as the substrate.
as §1, with “cyclin T1-Cdk9,” for “cyclin H-Cdk7,”, “and 0.5” for “and 1”, “for 20” for “for 45”
Addition of the compound according to the invention to the reaction system was carried out by first preparing a dilution series of solutions of the compound in dimethylsulfoxide (DMSO), and adding […] of the dilutions. A control was provided by adding 1.1 μL of DMSO to the reaction system.
A representative compound of the compounds according to the invention was selected, and the IC50 value (nM) of this compound for the cyclin T1-Cdk9 activity was determined.

cyclin D2-Cdk4 = target: T3, cyclin D2-Cdk4 (Homo sapiens, UniProt P11802); experiment: Cdk4 inhibitory action: cyclin D2-Cdk4 kinase activity, 33P-ATP, RB peptide substrate; format: biochemical; details: cyclin D2-Cdk4, 50 μM ATP
T3 construct: made in house; host or cells: insect cell Sf9 (baculovirus)
From the text: First, the cDNA of Cdk4, and the cDNA of a fusion protein of cyclin D2, an activating factor of Cdk4, and glutathione S-transferase, were integrated into a baculovirus expression vector to prepare a recombinant baculovirus. This was co-transfected into insect cell Sf9 to express an active complex of the cyclin D2/glutathione S-transferase fusion protein-Cdk4 at a high level. The cells were recovered and solubilized, then the active complex was adsorbed onto Glutathione Sepharose, and a cyclin D2-Cdk4 complex was recovered using Precision Protease and was purified by HPLC column chromatography [EMBO J., Vol. 15, 7060-7069 (1996)].
For the measurement of the activity of cyclin D2-Cdk4, a synthetic peptide (Arg-Pro-Pro-Thr-Leu-Ser-Pro-Ile-Pro-His-Ile-Pro-Arg) corresponding to amino acid residue No. 775-787 of RB protein was used as the substrate [EMBO J., Vol. 15, 7060-7069 (1996)].
as §1, with “and” for “and to”, “composition of the reaction buffer (R buffer) was 20 mM Tris-hydrochloric acid buffer (pH 7.4)/10 mM magnesium chloride/4.5 mM 2-mercaptoethanol/1 mM ethylene glycol bis(β-aminoethyl ether)-N,N,N′,N′-tetraacetic acid (EGTA). To this reaction” for “R”, “D2-Cdk4, 100” for “H-Cdk7, 25”, “counter. The [γ-33P]-labeled ATP was purchased from Daiichi Pure Chemicals Co., Ltd.” for “counter.”
Addition of the test compound to the reaction system was carried out by first preparing a dilution series of solutions of the compound in dimethylsulfoxide (DMSO), and adding 1.1 μL of the dilutions. A control was provided by adding 1.1 μL of DMSO to the reaction system.
A representative compound of the compounds according to the invention was selected, and the IC50 value of this compound for the cyclin D2-Cdk4 activity was determined.

JURKAT = experiment: Inhibitory action against cell proliferation (WST-8), JURKAT; format: cell-based; details: Homo sapiens, 72 h, Jurkat cells, 3 days culture, read-out: concentration for 50% inhibition of cell proliferation (IC50), Jurkat
Method: Clinically isolated cancer cell lines EOL-1, KU812 and JURKAT were cultured in RPMI1640 medium containing 10% fetal calf serum at 37° C. in the presence of 5% CO2 under an atmosphere of saturated steam.
The inhibitory action against cell proliferation was measured by modifying the method of Skehan et al. [J. Natl. Cancer Inst., Vo. 82, 1107-1112 (1990)] according to the method of Ishiyama et al. [Talanta, Vol. 44, 1299 (1997)]. 100 μL each of cell culture medium containing 1×10^3 live cells of EOL-1, KU812 and JURKAT, respectively, was dispensed into each well of a 96-well cell culture dish, and the cells were cultured overnight. On the next day, a dilution series of solutions in DMSO was prepared from a DMSO solution of the compound of each Example. Then, the dilution series of solutions or DMSO only as a control for no drug addition were separately added to the medium for cell culture. Finally, 100 μL each of the culture medium containing either the dilution series of solutions of the compounds or DMSO only, was added to the cells which had been cultured in a 96-well dish, and then the cells were further cultured for 3 days.
After adding 20 μL each of WST-8 (Kishida Chemical Co., Ltd.) to each well and culturing the cells for another 2 hours, the optical densities at 450 nm were measured against a reference wavelength of 650 nm, and were compared with the control group. The results obtained by determining the concentrations for 50% inhibition of cell proliferation (IC50 (nM)) of the compounds of Examples are presented in the following Table 4.

T1 sequence (P50613 whole entry): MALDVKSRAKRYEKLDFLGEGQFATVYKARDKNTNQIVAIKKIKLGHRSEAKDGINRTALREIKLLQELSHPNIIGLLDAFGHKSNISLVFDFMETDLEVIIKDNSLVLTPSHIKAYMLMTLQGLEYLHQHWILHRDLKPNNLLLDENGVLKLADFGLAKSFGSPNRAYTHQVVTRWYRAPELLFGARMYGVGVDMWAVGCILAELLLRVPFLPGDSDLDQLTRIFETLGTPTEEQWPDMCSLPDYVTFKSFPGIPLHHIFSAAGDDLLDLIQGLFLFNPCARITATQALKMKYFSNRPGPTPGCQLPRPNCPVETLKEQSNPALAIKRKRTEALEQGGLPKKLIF
T1 sequence (P51946 whole entry partner): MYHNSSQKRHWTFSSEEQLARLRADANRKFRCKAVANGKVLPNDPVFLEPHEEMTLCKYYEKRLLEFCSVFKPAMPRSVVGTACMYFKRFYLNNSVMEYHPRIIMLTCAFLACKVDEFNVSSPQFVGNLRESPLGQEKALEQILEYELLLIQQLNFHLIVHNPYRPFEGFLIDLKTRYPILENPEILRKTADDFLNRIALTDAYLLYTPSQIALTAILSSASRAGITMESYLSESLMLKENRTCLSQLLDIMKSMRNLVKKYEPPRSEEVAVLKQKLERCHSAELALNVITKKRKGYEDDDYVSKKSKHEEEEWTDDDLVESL
T2 sequence (P50750 whole entry): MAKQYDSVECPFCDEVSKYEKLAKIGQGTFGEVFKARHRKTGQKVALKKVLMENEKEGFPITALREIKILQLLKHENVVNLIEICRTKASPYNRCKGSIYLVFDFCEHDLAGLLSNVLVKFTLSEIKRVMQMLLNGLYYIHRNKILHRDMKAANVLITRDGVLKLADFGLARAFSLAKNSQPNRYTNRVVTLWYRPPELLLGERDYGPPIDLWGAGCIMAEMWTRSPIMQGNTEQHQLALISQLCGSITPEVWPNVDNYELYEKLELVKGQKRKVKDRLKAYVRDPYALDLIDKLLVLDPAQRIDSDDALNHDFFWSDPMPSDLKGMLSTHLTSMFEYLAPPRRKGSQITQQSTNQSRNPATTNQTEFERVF
T2 sequence (O60563 whole entry partner): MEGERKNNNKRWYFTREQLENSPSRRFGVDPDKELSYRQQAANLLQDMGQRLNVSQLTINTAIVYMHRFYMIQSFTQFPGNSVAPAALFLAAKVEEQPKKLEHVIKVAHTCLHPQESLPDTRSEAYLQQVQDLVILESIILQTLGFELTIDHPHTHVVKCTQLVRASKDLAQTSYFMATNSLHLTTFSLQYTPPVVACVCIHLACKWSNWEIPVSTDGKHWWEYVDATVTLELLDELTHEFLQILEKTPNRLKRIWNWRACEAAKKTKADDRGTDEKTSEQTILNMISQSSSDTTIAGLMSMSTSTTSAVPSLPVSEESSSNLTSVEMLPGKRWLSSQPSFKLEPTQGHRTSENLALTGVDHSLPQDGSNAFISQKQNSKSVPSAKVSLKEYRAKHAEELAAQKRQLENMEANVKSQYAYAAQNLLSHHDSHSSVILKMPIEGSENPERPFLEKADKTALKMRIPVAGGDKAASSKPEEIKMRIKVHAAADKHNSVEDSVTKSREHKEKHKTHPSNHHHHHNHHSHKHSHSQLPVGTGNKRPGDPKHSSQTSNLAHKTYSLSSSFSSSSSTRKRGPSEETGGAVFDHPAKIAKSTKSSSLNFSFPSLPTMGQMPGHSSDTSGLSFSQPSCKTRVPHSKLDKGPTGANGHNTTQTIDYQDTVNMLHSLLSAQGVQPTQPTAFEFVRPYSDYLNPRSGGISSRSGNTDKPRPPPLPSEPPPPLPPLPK
T3 sequence (P11802 whole entry): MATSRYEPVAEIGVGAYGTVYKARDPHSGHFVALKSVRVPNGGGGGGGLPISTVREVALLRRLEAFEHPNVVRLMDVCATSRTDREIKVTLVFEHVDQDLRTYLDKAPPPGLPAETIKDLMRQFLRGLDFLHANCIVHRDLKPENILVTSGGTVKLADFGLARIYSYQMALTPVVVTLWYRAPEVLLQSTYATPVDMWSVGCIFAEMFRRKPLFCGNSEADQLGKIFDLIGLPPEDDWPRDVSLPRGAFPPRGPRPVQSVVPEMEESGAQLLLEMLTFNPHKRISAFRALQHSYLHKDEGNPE
T3 sequence (P30279 whole entry partner): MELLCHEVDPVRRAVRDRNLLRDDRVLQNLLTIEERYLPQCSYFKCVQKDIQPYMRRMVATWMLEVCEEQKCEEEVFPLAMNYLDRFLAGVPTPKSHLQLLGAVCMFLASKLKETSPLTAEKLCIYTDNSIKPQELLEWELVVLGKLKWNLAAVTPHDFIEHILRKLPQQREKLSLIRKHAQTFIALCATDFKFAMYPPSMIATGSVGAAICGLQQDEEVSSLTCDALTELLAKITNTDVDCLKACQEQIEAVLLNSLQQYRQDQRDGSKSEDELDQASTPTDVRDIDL

| Compound | IC50 (cyclin H-Cdk7) | IC50 (cyclin T1-Cdk9) | IC50 (cyclin D2-Cdk4) | IC50 (JURKAT) |
| --- | --- | --- | --- | --- |
| Cc1cc(-c2cnc(Nc3cnc(CN4CC[C@@H](O)C4)cn3)s2)nc(Sc2ccccc2Cl)n1 [Example 118, (3R)-5-[2-(2-chlorophenylthio)-6-methyl-4-pyrimidinyl]-2-[5-(3-hydroxy-1-pyrrolidinyl)methyl-2-pyrazinyl]amino-1,3-thiazole] | 990 nM | 980 nM | 20 nM | 90 nM |
| CNCc1cnc(Nc2ncc(-c3cc(C)nc(Sc4ccccc4Cl)n3)s2)cn1 [Example 107] | 830 nM | 250 nM | 8.8 nM | 63 nM |
| Cc1cc(-c2cnc(Nc3cnc(CN4CCCC4)cn3)s2)nc(Sc2ccccc2Cl)n1 [Example 113, 5-[2-(2-chlorophenylthio)-6-methyl-4-pyrimidinyl]-2-[5-(1-pyrrolidinyl)methyl-2-pyrazinyl]amino-1,3-thiazole] | 560 nM | 880 nM | 13 nM | 72 nM |
| Cc1cc(-c2cnc(Nc3cnc(CNC(C)C)cn3)s2)nc(Sc2ccccc2Cl)n1 [Example 106, 5-[2-(2-chlorophenylthio)-6-methyl-4-pyrimidinyl]-2-[5-(isopropylamino)methyl-2-pyrazinyl]amino-1,3-thiazole] | 560 nM | 310 nM | 8.4 nM | 63 nM |
| Cc1cc(-c2cnc(Nc3cnc(CN(C)CCO)cn3)s2)nc(Sc2ccccc2Cl)n1 [Example 114, 5-[2-(2-chlorophenylthio)-6-methyl-4-pyrimidinyl]-2-{5-[(2-hydroxyethyl)methylamino]methyl-2-pyrazinyl}amino-1,3-thiazole] | 780 nM | 1600 nM | 13 nM | 83 nM |

The next molecules have a lower IC50 (cyclin H-Cdk7) than those just listed; values first:

| IC50 (cyclin H-Cdk7) | IC50 (cyclin T1-Cdk9) | IC50 (cyclin D2-Cdk4) | IC50 (JURKAT) | Compound |
| --- | --- | --- | --- | --- |
| 490 nM | 320 nM | 10 nM | 73 nM | Cc1cc(-c2cnc(Nc3cnc(CN4CCC[C@H]4CO)cn3)s2)nc(Sc2ccccc2Cl)n1 [Example 110, (2S)-5-[2-(2-chlorophenylthio)-6-methyl-4-pyrimidinyl]-2-[5-(2-hydroxymethyl-1-pyrrolidinyl)methyl-2-pyrazinyl]amino-1,3-thiazole] |
| 210 nM | 330 nM | 5.5 nM | 160 nM | CCNCc1cnc(Nc2ncc(-c3cc(C)nc(NC4CCCCC4)n3)s2)cn1 [Example 52, 5-[2-(cyclohexylamino)-6-methyl-4-pyrimidinyl]-2-[5-(ethylamino)methyl-2-pyrazinyl]amino-1,3-thiazole] |
| 370 nM | 180 nM | 5.3 nM |  | CCNCc1cnc(Nc2ncc(-c3cc(C)nc(Sc4ccccc4Cl)n3)s2)cn1 [Example 105, 5-[2-(2-chlorophenylthio)-6-methyl-4-pyrimidinyl]-2-[5-(ethylamino)methyl-2-pyrazinyl]amino-1,3-thiazole] |
